Data reported in patent US10030006B2, “Coumarin based Hsp90 inhibitors with urea and ether substituents” (University of Kansas, priority 2013, dated 2018).
pIC50: −log10 of the molar value.

Key:
Assay type in all cases: cell-based
[1] = test system: SKBr3 (estrogen receptor negative, Her2 over-expressing breast cancer cells); assay: Anti-proliferation assay (MTS/PMS, 72 h), SKBr3; conditions: Homo sapiens, SK-BR-3; Table 6, substituted phenyl ureas; Breast Cancer; read-out: IC50 SKBr3
BCPAP = assay: Anti-proliferation assay, BCPAP; conditions: Homo sapiens, BCPAP; Table 6, substituted phenyl ureas; Thyroid
Description: Cells were maintained in a 1:1 mixture of Advanced DMEM/F12 (Gibco) supplemented with non-essential amino acids, L-glutamine (2 mM), streptomycin (500 μg/mL), penicillin (100 units/mL), and 10% FBS. Cells were grown to confluence in a humidified atmosphere (37° C., 5% CO2), seeded (2000/well, 100 μL) in 96-well plates, and allowed to attach overnight. Compound at varying concentrations in DMSO (1% DMSO final concentration) was added, and cells were returned to the incubator for 72 h. At 72 h, the number of viable cells was determined using an MTS/PMS cell proliferation kit (Promega) per the manufacturer's instructions. Cells incubated in 1% DMSO were used at 100% proliferation, and values were adjusted accordingly. IC50 values were calculated from separate experiments performed in triplicate using GraphPad Prism.

MDAMB231 = assay: Anti-proliferation assay, MDAMB231; conditions: Homo sapiens, MDA-MB-231; Table 6, substituted phenyl ureas; Tri-Neg
In short: (§1)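 MTS/PMS viability readout after 72 h compound exposure, with 1% DMSO-treated wells set as 100% proliferation. Cells at 2000/well, attached overnight before dosing; IC50 fitted from separate triplicate runs.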

HMLE = assay: Anti-proliferation assay, HMLE (normal); conditions: HMLE, Table 6, substituted phenyl ureas
In short: as §1

[2] = test system: MCF-7 (estrogen receptor positive breast cancer cells); assay: Anti-proliferation assay (MTS/PMS, 72 h), MCF-7; conditions: Homo sapiens, MCF7; Table 6, substituted phenyl ureas; Breast Cancer; read-out: IC50 MCF-3
JMAR = assay: Anti-proliferation assay, JMAR; conditions: JMAR; Table 6, substituted phenyl ureas; HSNCC
In short: as §1

HCT-116 = assay: Anti-proliferation assay, HCT-116; conditions: Homo sapiens, HCT-116; Table 6, substituted phenyl ureas
In short: as §1

MDA1986 = assay: Anti-proliferation assay, MDA1986; conditions: MDA1986; Table 6, substituted phenyl ureas; HSNCC
In short: as §1

A-549 = assay: Anti-proliferation assay, A-549; conditions: Homo sapiens, A549; Table 6, substituted phenyl ureas
In short: as §1

DRO81-1 = assay: Anti-proliferation assay, DRO81-1; conditions: Table 6, substituted phenyl ureas; Thyroid
In short: as §1

PC-3 = assay: Anti-proliferation assay, PC-3; conditions: Homo sapiens, PC-3; Table 6, substituted phenyl ureas; Prostate Cancer
In short: as §1

MRC5 = assay: Anti-proliferation assay, MRC5 (normal); conditions: Homo sapiens, MRC5, Table 6, substituted phenyl ureas
In short: as §1

Row | Structure (SMILES) | pIC50 [1] | pIC50 (BCPAP) | pIC50 (MDAMB231) | pIC50 (HMLE) | pIC50 [2] | pIC50 (JMAR) | pIC50 (HCT-116) | pIC50 (MDA1986) | pIC50 (A-549) | pIC50 (DRO81-1) | pIC50 (PC-3) | pIC50 (MRC5)
1 | CC(=O)Oc1cccc(NC(=O)Nc2cc3ccc(OC4CCN(C)CC4)c(C)c3oc2=O)c1 [m-OAc, 3-(3-(8-methyl-7-((1-methylpiperidin-4-yl)oxy)-2-oxo-2H-chromen-3-yl)ureido)phenyl acetate] | 5.63 | 5.55 | 5.39 | 4.87 | 5.85 | 5.41 | 4.92 | 5.17 | 5.72 | 5.57 | 5.72 | < 4.60
2 | Cc1c(OC2CCN(C)CC2)ccc2cc(NC(=O)Nc3cccc(O)c3)c(=O)oc12 [m-OH, 1-(3-hydroxyphenyl)-3-(8-methyl-7-((1-methylpiperidin-4-yl)oxy)-2-oxo-2H-chromen-3-yl)urea] | 5.63 | 6.57 | 5.89 | 4.92 | 5.56 | 5.19 | < 4.00 | 4.66 | 4.96 | < 4.60 | 4.96 | < 4.60
3 | CCc1ccc(NC(=O)Nc2cc3ccc(OC4CCN(C)CC4)c(C)c3oc2=O)cc1 [p-CH2CH3, 1-(4-ethylphenyl)-3-(8-methyl-7-((1-methylpiperidin-4-yl)oxy)-2-oxo-2H-chromen-3-yl)urea] | 6.24 | 5.36 | 6.16 | 5.92 | 6.25 | 5.99 | 6.28 | 5.85 | 6.31 | 6.54 | 6.39 | 5.59
4 | Cc1c(OC2CCN(C)CC2)ccc2cc(NC(=O)Nc3ccc(N(C)C)cc3)c(=O)oc12 [p-N-dimethylamine, 1-(4-(dimethylamino)phenyl)-3-(8-methyl-7-((1-methylpiperidin-4-yl)oxy)-2-oxo-2H-chromen-3-yl)urea] | 5.95 | 6.13 | 5.85 | 6.02 | 6.00 | 6.11 | 5.03 | 4.76 | 5.57 | < 4.60 | 5.10 | 4.84
5 | CC(=O)Oc1ccc(NC(=O)Nc2cc3ccc(OC4CCN(C)CC4)c(C)c3oc2=O)cc1 [p-OAc, 4-(3-(8-methyl-7-((1-methylpiperidin-4-yl)oxy)-2-oxo-2H-chromen-3-yl)ureido)phenyl acetate] | 5.83 | 5.26 | 6.07 | 4.80 | 5.76 | 5.46 | 5.58 | 5.70 | 5.82 | 5.43 | 5.94 | 4.81
6 | Cc1c(OC2CCN(C)CC2)ccc2cc(NC(=O)Nc3ccc(OC(F)(F)F)cc3)c(=O)oc12 [p-OCF3, 1-(8-methyl-7-((1-methylpiperidin-4-yl)oxy)-2-oxo-2H-chromen-3-yl)-3-(4-(trifluoromethoxy)phenyl)urea] | 6.39 | 6.06 | 6.16 | 5.39 | 6.40 | 5.44 | 6.57 | 6.06 | 6.51 | 6.64 | 6.80 | 5.48
